Results reported in patent US8946212B2, “Annelated N-heterocyclic sulfonamides with oxadiazolone headgroup, processes for their preparation and their use as pharmaceuticals” (Sanofi-Aventis, priority 2008, dated 2015).
pEC50: −log10 of the molar value. Like-named read-outs stand apart in the source and are kept apart here. Blank lines part the entries; values can stand above or below the compound they belong to.

Legend:
human PPARdelta = target: T1, human PPARdelta (Homo sapiens, UniProt Q03181); experiment: Cellular PPARdelta assay (HEK reporter cell line, luciferase); format: cell-based; conditions: PPARdelta reporter cell line (HEK, GR-GAL4-humanPPARdelta-LBD)
T1 construct: human PPARdelta receptor (amino acids S139-Y441); expressed in transfected cells; host or cells: HEK (human embryo kidney) cells, stably transfected; plasmid pcDNA3
T1 sequence (Q03181 139-441): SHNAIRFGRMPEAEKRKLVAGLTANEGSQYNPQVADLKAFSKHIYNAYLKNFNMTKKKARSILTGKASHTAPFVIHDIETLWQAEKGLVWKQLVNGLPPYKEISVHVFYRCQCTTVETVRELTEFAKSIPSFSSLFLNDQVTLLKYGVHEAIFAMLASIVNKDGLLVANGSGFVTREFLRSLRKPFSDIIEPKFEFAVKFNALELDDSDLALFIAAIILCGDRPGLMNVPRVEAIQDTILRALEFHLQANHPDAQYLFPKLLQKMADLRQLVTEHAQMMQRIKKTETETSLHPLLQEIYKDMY
Protocol: The potency of substances which bind to human PPARdelta and activate it in an agonistic manner is analyzed using a stably transfected HEK cell line (HEK=human embryo kidney) which is referred to here as PPARdelta reporter cell line. In analogy to the assay described for PPARalpha, the PPARdelta reporter cell line also contains two genetic elements, a luciferase reporter element (pdeltaM-GAL4-Luc-Zeo) and a PPARdelta fusion protein (GR-GAL4-humanPPARdelta-LBD) which mediates expression of the luciferase reporter element depending on a PPARdelta ligand. The stably and constitutively expressed fusion protein GR-GAL4-humanPPARdelta-LBD binds in the cell nucleus of the PPARdelta reporter cell line via the GAL4 protein portion to the GAL4 DNA binding motifs 5″-upstream of the luciferase reporter element which is stably integrated in the genome of the cell line. There is only little expression of the luciferase reporter gene in the absence of a PPARdelta ligand if fatty acid-depleted fetal calf serum (cs-FCS) is used in the assay. PPARdelta ligands bind and activate the PPARdelta fusion protein and thereby stimulate expression of the luciferase reporter gene. The luciferase which is formed can be detected by means of chemiluminescence via an appropriate substrate.
The production of the stable PPARdelta reporter cell line is based on a stable HEK-cell clone which was stably transfected with a luciferase reporter element. This step was already described above in the section “construction of the PPARalpha reporter cell line”. In a second step, the PPARdelta fusion protein (GR-GAL4-humanPPARdelta-LBD was stably introduced into this cell clone. For this purpose, the cDNA coding for the N-terminal 76 amino acids of the glucocorticoid receptor (Accession # P4150) was linked to the cDNA section coding for amino acids 1-147 of the yeast transcription factor GAL4 (Accession #P04386). The cDNA of the ligand-binding domain of the human PPARdelta receptor (amino acids S139-Y441; Accession # L07592) was cloned in at the 3′-end of this GR-GAL4 construct. The fusion construct prepared in this way (GR-GAL4-humanPPARdelta-LBD) was recloned into the plasmid pcDNA3 (Invitrogen) in order to enable constitutive expression by the cytomegalovirus promoter. This plasmid was linearized with a restriction endonuclease and stably transfected into the previously described cell clone containing the luciferase reporter element. The resulting PPARdelta reporter cell line which contains a luciferase reporter element and constitutively expresses the PPARdelta fusion protein (GR-GAL4-human PPARdelta-LBD) was isolated by selection with zeocin (0.5 mg/ml) and G418 (0.5 mg/ml).
The activity of PPARdelta agonists is determined in a 3-day assay in exact analogy to the procedure already described for the PPARalpha reporter cell line except that the PPARdelta reporter cell line and a specific PPARdelta agonist was used as a standard to control test efficacy.

[1] = cynomolgus monkeys; cited from earlier work
[2] = rhesus monkeys; cited from earlier work
[3] = two weeks clinical trials in healthy volunteers; cited from earlier work
human PPARalpha = target: T2, human PPARalpha (Homo sapiens, UniProt Q07869); experiment: Cellular PPARalpha assay (HEK reporter cell line, luciferase); format: cell-based; conditions: PPARalpha reporter cell line (HEK, GR-GAL4-humanPPARalpha-LBD)
T2 construct: human PPARalpha receptor (amino acids S167-Y468); expressed in transfected cells; host or cells: HEK (human embryo kidney) cells, stably transfected; plasmid pcDNA3
T2 sequence (Q07869 167-468): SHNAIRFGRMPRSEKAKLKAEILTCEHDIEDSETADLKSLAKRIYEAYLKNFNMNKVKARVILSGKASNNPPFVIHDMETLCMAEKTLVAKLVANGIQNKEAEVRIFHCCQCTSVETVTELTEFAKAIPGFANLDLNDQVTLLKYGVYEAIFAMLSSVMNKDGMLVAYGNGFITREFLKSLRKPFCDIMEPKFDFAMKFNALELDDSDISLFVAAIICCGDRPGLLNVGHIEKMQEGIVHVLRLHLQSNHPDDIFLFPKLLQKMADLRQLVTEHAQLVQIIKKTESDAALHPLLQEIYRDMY
Protocol: The potency of substances which bind to human PPARalpha and activate it in an agonistic manner is analyzed using a stably transfected HEK cell line (HEK=human embryo kidney) which is referred to here as PPARalpha reporter cell line. It contains two genetic elements, a luciferase reporter element (pdeltaM-GAL4-Luc-Zeo) and a PPARalpha fusion protein (GR-GAL4-humanPPARalpha-LBD) which mediates expression of the luciferase reporter element depending on a PPARalpha ligand. The stably and constitutively expressed fusion protein GR-GAL4-humanPPARalpha-LBD binds in the cell nucleus of the PPARalpha reporter cell line via the GAL4 protein portion to the GAL4 DNA binding motifs 5′-upstream of the luciferase reporter element which is stably integrated in the genome of the cell line. There is only weak expression of the luciferase reporter gene in the absence of a PPARalpha ligand if fatty acid-depleted fetal calf serum (cs-FCS) is used in the assay. PPARalpha ligands bind and activate the PPARalpha fusion protein and thereby stimulate the expression of the luciferase reporter gene. The luciferase which is formed can be detected by means of chemiluminescence via an appropriate substrate.
The PPARalpha reporter cell line was prepared in two stages. […]
The activity of PPARalpha agonists is determined in a 3-day assay which is described below: […]

[4] = obese, insulin resistant rhesus monkeys, cited from earlier work
[5] = diabetic animal model; cited from earlier work

Compound: 3-{2-Chloro-4-[4,4-dimethyl-6-(4-trifluoromethyl-phenyl)-3,4-dihydro-2H-quinolin-1-yl]-phenyl}-4H-[1,2,4]oxadiazol-5-one [Example 3]
pEC50 (human PPARdelta): 8.48

Compound: CCCc1c(OCCCSc2nnc(SCC(=O)O)s2)ccc(C(C)=O)c1O [YM-16638]
plasma lipids [1]: significantly lowers
plasma lipids [2]: significantly lowers
plasma lipids [3]: acts in a similar manner

pEC50 (human PPARdelta): 8.72
Compound: CC1(C)Cc2cc(-c3ccc(C(F)(F)F)cc3)ccc2N(c2ccc(-c3noc(=O)[nH]3)c(Cl)c2)C1 [Example 5, 3-{2-Chloro-4-[3,3-dimethyl-6-(4-trifluoromethyl-phenyl)-3,4-dihydro-2H-quinolin-1-yl]-phenyl}-4H-[1,2,4]oxadiazol-5-one]

pEC50 (human PPARalpha): 6.30
pEC50 (human PPARdelta): 9.40
Compound: O=c1[nH]c(-c2ccc(S(=O)(=O)N3CCCc4nc(-c5ccc(C(F)(F)F)cc5)ccc43)cc2Cl)no1 [Example 13, 3-{2-Chloro-4-[6-(4-trifluoromethyl-phenyl)-3,4-dihydro-2H-[1,5]naphthyridine-1-sulfonyl]-phenyl}-4H-[1,2,4]oxadiazol-5-one]

Compound: Cc1cc(SCc2sc(-c3ccc(C(F)(F)F)cc3)nc2C)ccc1OCC(=O)O [GW501516]
insulin levels ([4]; plasma): decreases
triglycerides ([4]; plasma): decreases
HDL-cholesterol [4]: raises
plasma LDL-cholesterol [4]: decreases

Compound: CCCc1c(OCCCOc2ccc(OCC(=O)O)cc2)ccc(C(C)=O)c1O [Example L-165041]
plasma cholesterol [5]: raises

pEC50 (human PPARdelta): 7.26
Compound: 3-{2-Chloro-4-[7-(4-trifluoromethyl-phenyl)-2,3-dihydro-pyrido[3,2-b][1,4]oxazin-4-yl]-phenyl}-4H-[1,2,4]oxadiazol-5-one [Example 8]

pEC50 (human PPARdelta): 6.28
Compound: O=c1[nH]c(-c2ccc(S(=O)(=O)N3CCNCc4cc(-c5ccc(C(F)(F)F)cc5)ccc43)cc2Cl)no1 [Example 12, 3-{2-Chloro-4-[7-(4-trifluoromethyl-phenyl)-2,3,4,5-tetrahydro-benzo[e][1,4]diazepine-1-sulfonyl]-phenyl}-4H-[1,2,4]oxadiazol-5-one]

Compound: 3-{4-[6-(4-Trifluoromethyl-phenyl)-3,4-dihydro-2H-quinolin-1-yl]-phenyl}-4H-[1,2,4]oxadiazol-5-one [Example 1]
pEC50 (human PPARdelta): 8.64
